Measurements taken from US20250011311A1, “AMIDO HETEROAROMATIC COMPOUNDS” (AstraZeneca AB, priority 2022, published 2025).

How the values were obtained:
[1] = biological target: recombinant 17bHSD13 (N2-K300) (Homo sapiens (Human), UniProt Q7Z5P4); experiment: In Vitro 17bHSD13 Enzyme Assay; type: biochemical; details: 80 nM 17bHSD13, 0.5 mM NAD, 20 μM Estradiol, 2.5 h; estradiol to estrone by LC-MS/MS
Method in brief: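 Human 17bHSD13 (N2-K300, 80 nM) with 0.5 mM NAD, 20 μM estradiol and varied compound in 50 mM Tris-Cl pH 7.4, 5 mM EDTA, 0.01% DDM. Estrone/(estrone+estradiol) ratio read by LC-MS/MS (APCI, positive MRM). Inhibition normalised to DMSO and a known-inhibitor control; IC50 from curve fit.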

[2] = biological target: over expressed HSD17β13 in HEK293S cells (Homo sapiens (Human), UniProt Q7Z5P4); experiment: In Vitro 17bHSD13 Cell Assay; type: cell-based; details: HEK293S cells over expressing HSD17β13; estradiol to estrone conversion, 18 h, LC-MS/MS; read-out: 17bHSD1713 Cell assay IC50
over expressed HSD17β13 in HEK293S cells, sequence (Q7Z5P4 20-300): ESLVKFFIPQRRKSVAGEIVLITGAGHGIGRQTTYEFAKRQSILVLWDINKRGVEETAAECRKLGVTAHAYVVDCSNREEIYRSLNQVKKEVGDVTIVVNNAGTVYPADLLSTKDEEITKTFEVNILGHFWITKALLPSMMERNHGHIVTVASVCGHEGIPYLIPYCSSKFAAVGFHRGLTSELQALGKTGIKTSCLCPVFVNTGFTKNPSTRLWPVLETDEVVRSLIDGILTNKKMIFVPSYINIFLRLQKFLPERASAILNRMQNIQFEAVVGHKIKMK
Method in brief: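 HEK293S cells overexpressing HSD17β13 convert estradiol to estrone; product read by LC-MS/MS (APCI, positive MRM) as AUC ratio estrone/(estrone+estradiol). Effect normalised between DMSO and maximal inhibition by a known inhibitor control; IC50 from curve fit.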

[3] = biological target: human CB1 receptor expressed in transfected CHO cells (Homo sapiens (Human), UniProt P21554); experiment: Assay C: CB1 Agonism Assay; type: cell-based; details: agonist activity, cAMP HTRF, read-out: Assay C: CB1 Hu CHO cAMP TRF Ag CR GMean EC50
human CB1 receptor expressed in transfected CHO cells, sequence (P21554 whole entry): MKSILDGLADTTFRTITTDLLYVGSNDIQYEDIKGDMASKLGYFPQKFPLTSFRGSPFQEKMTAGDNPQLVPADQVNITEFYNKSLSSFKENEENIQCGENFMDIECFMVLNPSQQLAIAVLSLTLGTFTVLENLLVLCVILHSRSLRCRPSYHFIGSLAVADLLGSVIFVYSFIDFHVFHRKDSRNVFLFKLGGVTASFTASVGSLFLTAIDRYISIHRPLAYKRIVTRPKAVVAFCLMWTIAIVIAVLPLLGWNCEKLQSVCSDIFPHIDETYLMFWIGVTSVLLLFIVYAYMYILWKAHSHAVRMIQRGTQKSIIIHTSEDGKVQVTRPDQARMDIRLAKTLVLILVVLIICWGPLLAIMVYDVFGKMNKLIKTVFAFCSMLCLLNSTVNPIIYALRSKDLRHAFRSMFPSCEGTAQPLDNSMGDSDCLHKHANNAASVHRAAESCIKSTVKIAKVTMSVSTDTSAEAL
Method: Assay C: CB1 Agonism Assay
Evaluation of the agonist activity of compounds at the human CB1 receptor expressed in transfected CHO cells, determined by measuring their effects on cAMP modulation using the HTRF detection method.
Thereafter, the adenylyl cyclase activator NKH 477 is added at a final concentration of 3 μM. Following 20 min incubation at 37° C., the cells are lysed and the fluorescence acceptor (D2-labeled cAMP) and fluorescence donor (anti-cAMP antibody labeled with europium cryptate) are added. After 60 min at room temperature, the fluorescence transfer is measured at gex=337 nm and gem=620 and 665 nm using a microplate reader (RUBYSTAR, BMG). The cAMP concentration is determined by dividing the signal measured at 665 nm by that measured at 620 nm (ratio). The results are expressed as a percent of the control response to 30 nM CP 55940. The standard reference agonist is CP 55940, which is tested in each experiment at several concentrations to generate a concentration-response curve from which its EC50 value is calculated.
Bibliographic reference Felder, C. C. et al., (1995), Comparison of the pharmacology and signal transduction of the human cannabinoid CB1 and CB2 receptors, Mol. Pharmacol., 48: 443, which is incorporated herein by reference.

recombinant 17bHSD13 (N2-K300), sequence (Q7Z5P4 2-300): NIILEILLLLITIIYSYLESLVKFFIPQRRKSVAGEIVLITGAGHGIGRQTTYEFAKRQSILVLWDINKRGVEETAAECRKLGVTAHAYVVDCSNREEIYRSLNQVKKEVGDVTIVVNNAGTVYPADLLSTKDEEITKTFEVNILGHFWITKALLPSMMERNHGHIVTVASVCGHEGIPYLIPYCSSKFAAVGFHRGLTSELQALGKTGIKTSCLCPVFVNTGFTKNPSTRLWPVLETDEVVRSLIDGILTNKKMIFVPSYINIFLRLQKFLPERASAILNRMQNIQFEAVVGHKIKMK

SMILES | IC50 [1] | IC50 [2] | EC50 [3]
N#Cc1ccc2c(c1)CN(C(=O)c1noc(-c3cc(F)c(F)c(O)c3F)n1)CC2 [Example 86, 2-(5-(2,4,5-Trifluoro-3-hydroxyphenyl)-1,2,4-oxadiazole-3-carbonyl)-1,2,3,4-tetrahydroisoquinoline-7-carbonitrile] | 102 nM | 540 nM | 5700 nM
CC(C)[C@H]1CN(C(=O)c2noc(-c3cc(F)c(F)c(O)c3F)n2)C[C@@H](C)O1 (racemic) [Example 122, rac-((2R,6S)-2-isopropyl-6-methylmorpholino)(5-(2,4,5-trifluoro-3-hydroxyphenyl)-1,2,4-oxadiazol-3-yl)methanone] | 85 nM | 40 nM | 22300 nM
C[C@@H]1C[C@H](C)CN(C(=O)c2noc(-c3cc(F)c(F)c(O)c3F)n2)C1 [Example 37, ((3R,5S)-3,5-Dimethylpiperidin-1-yl)(5-(2,4,5-trifluoro-3-hydroxyphenyl)-1,2,4-oxadiazol-3-yl)methanone] | 57 nM | 30 nM | 2500 nM
C[C@@H]1CN(C(=O)c2ccc(-c3cc(F)c(F)c(O)c3F)s2)C[C@H](C)O1 [Example 3, ((2R,6S)-2,6-Dimethylmorpholino)(5-(2,4,5-trifluoro-3-hydroxyphenyl)thiophen-2-yl)methanone] | 36 nM | 30 nM | > 100000 nM
O=C(c1noc(-c2ccc(F)c(O)c2)n1)N1CC[C@H](c2ccccc2)C1 [Example 11, (R)-(5-(4-Fluoro-3-hydroxyphenyl)-1,2,4-oxadiazol-3-yl)(3-phenylpyrrolidin-1-yl)methanone] | 69 nM | 800 nM | 3100 nM
CC1CN(C(=O)c2noc(-c3cc(F)c(F)c(O)c3F)n2)CC(C)(C)O1 (stereo not drawn) [Example 117, (5-(2,4,5-Trifluoro-3-hydroxyphenyl)-1,2,4-oxadiazol-3-yl)(2,2,6-trimethylmorpholino)methanone] | 234 nM | 90 nM | 500 nM
C[C@@H]1CN(C(=O)c2cc(-c3cc(F)c(F)c(O)c3F)on2)C[C@H](C)O1 [Example 89, ((2R,6S)-2,6-Dimethylmorpholino)(5-(2,4,5-trifluoro-3-hydroxyphenyl)isoxazol-3-yl)methanone] | 168 nM | 70 nM | 78200 nM
O=C(c1noc(-c2cc(F)c(F)c(O)c2F)n1)N1CCO[C@@H]2CCC[C@@H]21 [Example 113, ((4aS,7aR)-Hexahydrocyclopenta[b][1,4]oxazin-4(4aH)-yl)(5-(2,4,5-trifluoro-3-hydroxyphenyl)-1,2,4-oxadiazol-3-yl)methanone] | 211 nM | 100 nM | 400 nM
N#Cc1cccc2c1CCN(C(=O)c1noc(-c3cc(F)c(F)c(O)c3F)n1)C2 [Example 66, 2-(5-(2,4,5-Trifluoro-3-hydroxyphenyl)-1,2,4-oxadiazole-3-carbonyl)-1,2,3,4-tetrahydroisoquinoline-5-carbonitrile] | 187 nM | 250 nM | 3200 nM
C[C@@H]1CN(C(=O)c2cnc(-c3cc(F)c(F)c(O)c3F)s2)C[C@H](C)O1 [Example 120, ((2R,6S)-2,6-Dimethylmorpholino)(2-(2,4,5-trifluoro-3-hydroxyphenyl)thiazol-5-yl)methanone] | 44 nM | 140 nM | 8500 nM
O=C(c1noc(-c2cc(F)c(F)c(O)c2F)n1)N1CCO[C@@H]2CCC[C@H]21 [Example 114, ((4aR,7aR)-Hexahydrocyclopenta[b][1,4]oxazin-4(4aH)-yl)(5-(2,4,5-trifluoro-3-hydroxyphenyl)-1,2,4-oxadiazol-3-yl)methanone] | 46 nM | 120 nM | 60500 nM
O=C(c1noc(-c2cc(F)c(F)c(O)c2F)n1)N1CCO[C@H]2CCC[C@@H]21 [Example 115, ((4aS,7aS)-Hexahydrocyclopenta[b][1,4]oxazin-4(4aH)-yl)(5-(2,4,5-trifluoro-3-hydroxyphenyl)-1,2,4-oxadiazol-3-yl)methanone] | 154 nM | 100 nM | > 100000 nM
CC1CN(C(=O)c2noc(-c3cc(F)c(F)c(O)c3F)n2)CC2(CCC2)O1 (racemic) [Example 123, (6-Methyl-5-oxa-8-azaspiro[3.5]nonan-8-yl)(5-(2,4,5-trifluoro-3-hydroxyphenyl)-1,2,4-oxadiazol-3-yl)methanone] | 77 nM | 80 nM | > 3000 nM
C[C@@H]1C[C@H](C)CN(C(=O)c2nc(-c3cc(F)c(F)c(O)c3F)no2)C1 [Example 111, ((3R,5S)-3,5-Dimethylpiperidin-1-yl)(3-(2,4,5-trifluoro-3-hydroxyphenyl)-1,2,4-oxadiazol-5-yl)methanone] | 93 nM | 100 nM | 3400 nM
N#Cc1ccc2c(c1)CCN(C(=O)c1noc(-c3cc(F)c(F)c(O)c3F)n1)C2 [Example 31, 2-(5-(2,4,5-Trifluoro-3-hydroxyphenyl)-1,2,4-oxadiazole-3-carbonyl)-1,2,3,4-tetrahydroisoquinoline-6-carbonitrile] | 165 nM | 1060 nM | –
CC[C@H]1CN(C(=O)c2noc(-c3cc(F)c(F)c(O)c3F)n2)C[C@@H](C)O1 (racemic) [Example 121, rac-((2R,6S)-2-Ethyl-6-methylmorpholino)(5-(2,4,5-trifluoro-3-hydroxyphenyl)-1,2,4-oxadiazol-3-yl)methanone] | 130 nM | 20 nM | > 10000 nM
O=C(c1noc(-c2cc(F)c(F)c(O)c2F)n1)N1CC[C@@H](Oc2ccccc2)C1 [Example 98, (R)-(3-Phenoxypyrrolidin-1-yl)(5-(2,4,5-trifluoro-3-hydroxyphenyl)-1,2,4-oxadiazol-3-yl)methanone] | 63 nM | 520 nM | –
COc1ccccc1C1CCN(C(=O)c2noc(-c3cc(F)c(F)c(O)c3F)n2)C1 (stereo not drawn) [Example 4, (3-(2-Methoxyphenyl)pyrrolidin-1-yl)(5-(2,4,5-trifluoro-3-hydroxyphenyl)-1,2,4-oxadiazol-3-yl)methanone] | 36 nM | 80 nM | 1900 nM
C[C@@H]1CN(C(=O)c2noc(-c3c(F)c(O)c(F)c(F)c3I)n2)C[C@H](C)O1 [Example 108, ((2S,6R)-2,6-Dimethylmorpholino)(5-(2,4,5-trifluoro-3-hydroxy-6-iodophenyl)-1,2,4-oxadiazol-3-yl)methanone] | 80 nM | 490 nM | –
O=C(c1noc(-c2cc(F)c(F)c(O)c2F)n1)N1CCN(CCCOc2ccc(F)cc2)CC1 [Example 57, (4-(3-(4-Fluorophenoxy)propyl)piperazin-1-yl)(5-(2,4,5-trifluoro-3-hydroxyphenyl)-1,2,4-oxadiazol-3-yl)methanone] | 88 nM | 140 nM | –
N#Cc1cccc2c1CCN(C(=O)c1noc(-c3c(F)c(O)c(F)c(F)c3I)n1)C2 [Example 109, 2-(5-(2,4,5-Trifluoro-3-hydroxy-6-iodophenyl)-1,2,4-oxadiazole-3-carbonyl)-1,2,3,4-tetrahydroisoquinoline-5-carbonitrile] | 46 nM | 1700 nM | –
O=C(c1noc(-c2cc(F)c(F)c(O)c2F)n1)N1CC(Oc2ccccc2)C1 [Example 2, (3-Phenoxyazetidin-1-yl)(5-(2,4,5-trifluoro-3-hydroxyphenyl)-1,2,4-oxadiazol-3-yl)methanone] | 75 nM | 1610 nM | –
C[C@@H]1CN(C(=O)c2noc(-c3cc(F)c(F)c(O)c3F)c2C#N)C[C@H](C)O1 [Example 22, 3-((2R,6S)-2,6-Dimethylmorpholine-4-carbonyl)-5-(2,4,5-trifluoro-3-hydroxyphenyl)isoxazole-4-carbonitrile] | 532 nM | 1120 nM | –
C[C@@H]1CN(C(=O)c2noc(-c3cc(F)c(F)c(O)c3F)n2)C[C@@H](C)O1 [Example 88, ((2R,6R)-2,6-Dimethylmorpholino)(5-(2,4,5-trifluoro-3-hydroxyphenyl)-1,2,4-oxadiazol-3-yl)methanone] | 468 nM | 190 nM | –
C[C@@H]1CC[C@H](C)N1C(=O)c1noc(-c2cc(F)c(F)c(O)c2F)n1 [Example 38, ((2R,5S)-2,5-Dimethylpyrrolidin-1-yl)(5-(2,4,5-trifluoro-3-hydroxyphenyl)-1,2,4-oxadiazol-3-yl)methanone] | 207 nM | 270 nM | –
